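48-hour exposure; five concentrations; linearly interpolated endpoints. TGI: concentration producing complete growth inhibition.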
Tests used:
Experiment in all cases: inhibition of tumour cell growth, NCI panel, 48 h
A498 renal = tested on: A498 renal
RPMI-8226 leukemia = tested on: RPMI-8226 leukemia
NCI-H226 lung = tested on: NCI-H226 lung
SK-MEL-2 melanoma = tested on: SK-MEL-2 melanoma
NCI-H23 lung = tested on: NCI-H23 lung
EKVX NSCLC = tested on: EKVX NSCLC
KM12 colon = tested on: KM12 colon
KM20L2 colon = tested on: KM20L2 colon
SW-620 colon = tested on: SW-620 colon
K-562 leukemia = tested on: K-562 leukemia
SNB-75 CNS = tested on: SNB-75 CNS
SF-539 CNS = tested on: SF-539 CNS
HCT-116 colon = tested on: HCT-116 colon
A549 NSCLC = tested on: A549 NSCLC
SK-MEL-5 melanoma = tested on: SK-MEL-5 melanoma
786-0 renal = tested on: 786-0 renal
TK-10 renal = tested on: TK-10 renal
SF-295 CNS = tested on: SF-295 CNS
UO-31 renal = tested on: UO-31 renal
RXF 393 renal = tested on: RXF 393 renal
HT29 colon = tested on: HT29 colon
OVCAR-5 ovarian = tested on: OVCAR-5 ovarian
LOX IMVI melanoma = tested on: LOX IMVI melanoma
MALME-3M melanoma = tested on: MALME-3M melanoma
UACC-257 melanoma = tested on: UACC-257 melanoma
OVCAR-4 ovarian = tested on: OVCAR-4 ovarian
SK-OV-3 ovarian = tested on: SK-OV-3 ovarian
ACHN renal = tested on: ACHN renal
M19-MEL melanoma = tested on: M19-MEL melanoma
SK-MEL-28 melanoma = tested on: SK-MEL-28 melanoma
CCRF-CEM leukemia = tested on: CCRF-CEM leukemia
XF 498 CNS = tested on: XF 498 CNS
IGROV1 ovarian = tested on: IGROV1 ovarian
OVCAR-8 ovarian = tested on: OVCAR-8 ovarian
HOP-18 NSCLC = tested on: HOP-18 NSCLC
DMS 114 small cell lung = tested on: DMS 114 small cell lung
HCT-15 colon = tested on: HCT-15 colon
COLO 205 colon = tested on: COLO 205 colon
LXFL 529 NSCLC = tested on: LXFL 529 NSCLC
DMS 273 small cell lung = tested on: DMS 273 small cell lung
SF-268 CNS = tested on: SF-268 CNS
RXF-631 renal = tested on: RXF-631 renal
OVCAR-3 ovarian = tested on: OVCAR-3 ovarian
MOLT-4 leukemia = tested on: MOLT-4 leukemia
M14 melanoma = tested on: M14 melanoma
NCI-H522 lung = tested on: NCI-H522 lung
SN12C renal = tested on: SN12C renal
HOP-92 NSCLC = tested on: HOP-92 NSCLC
NCI-H460 lung = tested on: NCI-H460 lung
UACC-62 melanoma = tested on: UACC-62 melanoma
SNB-19 CNS = tested on: SNB-19 CNS
SNB-78 CNS = tested on: SNB-78 CNS
U251 CNS = tested on: U251 CNS
HOP-62 NSCLC = tested on: HOP-62 NSCLC
CAKI-1 renal = tested on: CAKI-1 renal
SR leukemia = tested on: SR leukemia
HCC-2998 colon = tested on: HCC-2998 colon
HL-60(TB) leukemia = tested on: HL-60(TB) leukemia
DLD-1 colon = tested on: DLD-1 colon

SMILES: CC1(C)OCC[C@@H]1[Si](C)(C)C
- TGI (A498 renal): > 100 µM
- TGI (RPMI-8226 leukemia): > 100 µM
- TGI (NCI-H226 lung): > 100 µM
- TGI (SK-MEL-2 melanoma): > 100 µM
- TGI (NCI-H23 lung): > 100 µM
- TGI (EKVX NSCLC): > 100 µM
- TGI (KM12 colon): > 100 µM
- TGI (KM20L2 colon): > 100 µM
- TGI (SW-620 colon): > 100 µM
- TGI (K-562 leukemia): > 100 µM
- TGI (SNB-75 CNS): > 100 µM
- TGI (SF-539 CNS): > 100 µM
- TGI (HCT-116 colon): > 100 µM
- TGI (A549 NSCLC): > 100 µM
- TGI (SK-MEL-5 melanoma): > 100 µM
- TGI (786-0 renal): > 100 µM
- TGI (TK-10 renal): > 100 µM
- TGI (SF-295 CNS): > 100 µM
- TGI (UO-31 renal): > 100 µM
- TGI (RXF 393 renal): 89.8 µM
- TGI (HT29 colon): > 100 µM
- TGI (OVCAR-5 ovarian): > 100 µM
- TGI (LOX IMVI melanoma): > 100 µM
- TGI (MALME-3M melanoma): > 100 µM
- TGI (UACC-257 melanoma): > 100 µM
- TGI (OVCAR-4 ovarian): > 100 µM
- TGI (SK-OV-3 ovarian): > 100 µM
- TGI (ACHN renal): > 100 µM
- TGI (M19-MEL melanoma): > 100 µM
- TGI (SK-MEL-28 melanoma): > 100 µM
- TGI (CCRF-CEM leukemia): > 100 µM
- TGI (XF 498 CNS): > 100 µM
- TGI (IGROV1 ovarian): > 100 µM
- TGI (OVCAR-8 ovarian): > 100 µM
- TGI (HOP-18 NSCLC): > 100 µM
- TGI (DMS 114 small cell lung): > 100 µM
- TGI (HCT-15 colon): > 100 µM
- TGI (COLO 205 colon): > 100 µM
- TGI (LXFL 529 NSCLC): > 100 µM
- TGI (DMS 273 small cell lung): > 100 µM
- TGI (SF-268 CNS): > 100 µM
- TGI (RXF-631 renal): > 100 µM
- TGI (OVCAR-3 ovarian): > 100 µM
- TGI (MOLT-4 leukemia): > 100 µM
- TGI (M14 melanoma): > 100 µM
- TGI (NCI-H522 lung): 61 µM
- TGI (SN12C renal): > 100 µM
- TGI (HOP-92 NSCLC): > 100 µM
- TGI (NCI-H460 lung): > 100 µM
- TGI (UACC-62 melanoma): > 100 µM
- TGI (SNB-19 CNS): > 100 µM
- TGI (SNB-78 CNS): > 100 µM
- TGI (U251 CNS): > 100 µM

SMILES: CCCCCCC1=NOC(C(c2cc[nH]c2)N(C)[C@H](C(=O)OC)C(C)C)C1 (stereo not given in full)
- TGI (A498 renal): > 100 µM
- TGI (NCI-H226 lung): > 100 µM
- TGI (SK-MEL-2 melanoma): 65.9 µM
- TGI (NCI-H23 lung): > 100 µM
- TGI (HOP-62 NSCLC): > 100 µM
- TGI (EKVX NSCLC): > 100 µM
- TGI (KM12 colon): 63.6 µM
- TGI (KM20L2 colon): > 100 µM
- TGI (SW-620 colon): 68 µM
- TGI (K-562 leukemia): > 100 µM
- TGI (SNB-75 CNS): > 100 µM
- TGI (SF-539 CNS): > 100 µM
- TGI (HCT-116 colon): > 100 µM
- TGI (A549 NSCLC): > 100 µM
- TGI (SK-MEL-5 melanoma): > 100 µM
- TGI (786-0 renal): > 100 µM
- TGI (TK-10 renal): > 100 µM
- TGI (SF-295 CNS): > 100 µM
- TGI (UO-31 renal): > 100 µM
- TGI (RXF 393 renal): > 100 µM
- TGI (HT29 colon): > 100 µM
- TGI (OVCAR-5 ovarian): > 100 µM
- TGI (LOX IMVI melanoma): 74.6 µM
- TGI (CAKI-1 renal): > 100 µM
- TGI (MALME-3M melanoma): > 100 µM
- TGI (UACC-257 melanoma): > 100 µM
- TGI (OVCAR-4 ovarian): > 100 µM
- TGI (SK-OV-3 ovarian): > 100 µM
- TGI (ACHN renal): > 100 µM
- TGI (M19-MEL melanoma): > 100 µM
- TGI (SK-MEL-28 melanoma): > 100 µM
- TGI (CCRF-CEM leukemia): 53.9 µM
- TGI (XF 498 CNS): > 100 µM
- TGI (IGROV1 ovarian): > 100 µM
- TGI (SR leukemia): 91.6 µM
- TGI (OVCAR-8 ovarian): > 100 µM
- TGI (HCC-2998 colon): > 100 µM
- TGI (HOP-18 NSCLC): > 100 µM
- TGI (DMS 114 small cell lung): > 100 µM
- TGI (COLO 205 colon): 32.2 µM
- TGI (LXFL 529 NSCLC): > 100 µM
- TGI (HL-60(TB) leukemia): 63.7 µM
- TGI (DMS 273 small cell lung): > 100 µM
- TGI (SF-268 CNS): > 100 µM
- TGI (RXF-631 renal): > 100 µM
- TGI (OVCAR-3 ovarian): 77.6 µM
- TGI (MOLT-4 leukemia): 62.7 µM
- TGI (M14 melanoma): > 100 µM
- TGI (NCI-H522 lung): 33.9 µM
- TGI (SN12C renal): 51.6 µM
- TGI (HOP-92 NSCLC): > 100 µM
- TGI (UACC-62 melanoma): > 100 µM
- TGI (SNB-19 CNS): > 100 µM
- TGI (SNB-78 CNS): 87.1 µM
- TGI (DLD-1 colon): > 100 µM
- TGI (U251 CNS): > 100 µM

SMILES: O=C(Nc1cc(Cl)c(Cl)cc1Cl)C(=O)C(C(=O)c1ccccc1)C1OC(=O)c2ccccc21 (stereo not given)
- TGI (A498 renal): > 100 µM
- TGI (RPMI-8226 leukemia): > 100 µM
- TGI (NCI-H226 lung): > 100 µM
- TGI (NCI-H23 lung): > 100 µM
- TGI (HOP-62 NSCLC): > 100 µM
- TGI (EKVX NSCLC): > 100 µM
- TGI (KM12 colon): > 100 µM
- TGI (KM20L2 colon): > 100 µM
- TGI (SW-620 colon): > 100 µM
- TGI (K-562 leukemia): > 100 µM
- TGI (SNB-75 CNS): > 100 µM
- TGI (HCT-116 colon): > 100 µM
- TGI (A549 NSCLC): > 100 µM
- TGI (786-0 renal): > 100 µM
- TGI (TK-10 renal): > 100 µM
- TGI (SF-295 CNS): > 100 µM
- TGI (UO-31 renal): > 100 µM
- TGI (RXF 393 renal): > 100 µM
- TGI (HT29 colon): > 100 µM
- TGI (OVCAR-5 ovarian): > 100 µM
- TGI (LOX IMVI melanoma): > 100 µM
- TGI (CAKI-1 renal): > 100 µM
- TGI (MALME-3M melanoma): > 100 µM
- TGI (UACC-257 melanoma): > 100 µM
- TGI (OVCAR-4 ovarian): > 100 µM
- TGI (SK-OV-3 ovarian): > 100 µM
- TGI (ACHN renal): > 100 µM
- TGI (M19-MEL melanoma): > 100 µM
- TGI (SK-MEL-28 melanoma): > 100 µM
- TGI (CCRF-CEM leukemia): > 100 µM
- TGI (XF 498 CNS): > 100 µM
- TGI (IGROV1 ovarian): > 100 µM
- TGI (SR leukemia): > 100 µM
- TGI (OVCAR-8 ovarian): > 100 µM
- TGI (HCC-2998 colon): > 100 µM
- TGI (HOP-18 NSCLC): > 100 µM
- TGI (DMS 114 small cell lung): > 100 µM
- TGI (HCT-15 colon): > 100 µM
- TGI (COLO 205 colon): > 100 µM
- TGI (LXFL 529 NSCLC): > 100 µM
- TGI (HL-60(TB) leukemia): > 100 µM
- TGI (DMS 273 small cell lung): > 100 µM
- TGI (SF-268 CNS): > 100 µM
- TGI (RXF-631 renal): > 100 µM
- TGI (OVCAR-3 ovarian): > 100 µM
- TGI (MOLT-4 leukemia): > 100 µM
- TGI (M14 melanoma): > 100 µM
- TGI (NCI-H522 lung): > 100 µM
- TGI (SN12C renal): > 100 µM
- TGI (HOP-92 NSCLC): > 100 µM
- TGI (NCI-H460 lung): > 100 µM
- TGI (UACC-62 melanoma): > 100 µM
- TGI (SNB-19 CNS): > 100 µM
- TGI (SNB-78 CNS): > 100 µM
- TGI (DLD-1 colon): > 100 µM
- TGI (U251 CNS): > 100 µM

— PubChem BioAssay (NCI)
